Laboratory results reported in patent US20080261994A1, “CYCLOPROPANE COMPOUNDS AND PHARMACEUTICAL USE THEREOF” (Japan Tobacco Inc., priority 2003, published 2008).
Read-outs that look alike come from different tables or passages of the source.

Legend:
Assay type in all cases: biochemical
[1] = target: T1, MMP-1 (Homo sapiens, UniProt P03956); experiment: MMP-1 inhibitory action (Type I collagen Activity Measurement kit, FITC-labeled collagen type I)
T1 sequence (P03956 100-469): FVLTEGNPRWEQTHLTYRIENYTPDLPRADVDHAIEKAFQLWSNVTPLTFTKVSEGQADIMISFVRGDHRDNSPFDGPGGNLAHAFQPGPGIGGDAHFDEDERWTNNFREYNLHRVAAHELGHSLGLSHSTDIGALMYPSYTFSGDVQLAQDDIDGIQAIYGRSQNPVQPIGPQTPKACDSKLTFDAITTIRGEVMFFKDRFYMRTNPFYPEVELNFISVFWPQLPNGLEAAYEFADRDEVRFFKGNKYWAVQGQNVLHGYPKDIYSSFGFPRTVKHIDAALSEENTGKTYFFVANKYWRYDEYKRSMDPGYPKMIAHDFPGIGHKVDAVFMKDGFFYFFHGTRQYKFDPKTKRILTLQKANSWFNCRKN

[2] = target: T2, aggrecanase-1 (Homo sapiens, UniProt O75173); experiment: Aggrecanase-1 inhibitory action (Particle Assay, GAG release from aggrecan-containing polyacrylamide particles)
T2 sequence (O75173 213-837): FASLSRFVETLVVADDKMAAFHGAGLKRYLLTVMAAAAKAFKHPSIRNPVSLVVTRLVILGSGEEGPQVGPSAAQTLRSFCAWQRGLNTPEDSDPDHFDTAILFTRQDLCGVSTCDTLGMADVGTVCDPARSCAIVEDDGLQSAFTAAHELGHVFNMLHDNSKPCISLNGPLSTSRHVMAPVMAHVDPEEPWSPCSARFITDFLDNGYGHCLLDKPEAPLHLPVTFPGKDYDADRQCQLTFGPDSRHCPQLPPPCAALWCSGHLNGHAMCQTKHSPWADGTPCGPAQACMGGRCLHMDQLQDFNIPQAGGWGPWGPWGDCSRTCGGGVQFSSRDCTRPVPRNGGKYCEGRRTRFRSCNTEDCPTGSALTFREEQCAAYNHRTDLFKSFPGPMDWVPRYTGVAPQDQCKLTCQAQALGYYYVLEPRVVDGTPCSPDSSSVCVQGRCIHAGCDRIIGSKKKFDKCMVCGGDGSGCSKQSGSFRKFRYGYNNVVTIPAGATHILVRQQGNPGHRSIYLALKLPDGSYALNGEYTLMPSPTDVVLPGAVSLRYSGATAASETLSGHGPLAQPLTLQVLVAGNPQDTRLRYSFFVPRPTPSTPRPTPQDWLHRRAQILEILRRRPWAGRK
Outline: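 Readout was dimethylmethylene blue absorbance (595 nm) of glycosaminoglycan liberated into supernatant, calibrated with whale chondroitin sulfate. Substrate was aggrecan in polyacrylamide particles, digested 15 h at 37° C in Tris-HCl; TC50 (μM) derived from inhibition relative to no-enzyme and no-inhibitor controls.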

[3] = target: T3, Recombinant Human MMP-13 (Homo sapiens, UniProt P45452); experiment: MMP-13 inhibitory activity (MMP-13 specific fluorescent substrate with quencher)
T3 construct: purchased R&D systems 511-MM
Method: Inhibitory activity of tested compounds on MMP-13 was measured using MMP-13 specific fluorescent substrate with quencher.
The enzyme and substrate were diluted with Tris-HCl buffer, and test compounds were diluted with dimethyl sulfoxide (DMSO).
Test compounds and the enzyme (Recombinant Human MMP-13: R&D systems, 511-MM) were added into 96-well plate. The reaction was initiated by adding synthetic substrate (7-MCA-Pro-CHA-Gly-NVal-His-Ala-DPA: enzyme systems products, Met-06) into the plate. After incubation at 25° C. for 1 h, the reaction was terminated by addition of reaction terminating solution containing acetic acid. Fluorescence intensity of each well was measured (Ex: 325 nm, […] 405 nm) and the MMP-13 inhibitory activity of the compound in each well (%) was calculated based on the values of enzyme-free well and inhibitor-free well. The inhibitory activity of the compound was represented as IC50 (μM).

[4] = MMP-1 inhibitory action, FITC-labeled collagen type I, 37° C. for 3 hr, read-out: IC50 MMP1 (Experimental Example 2)
[5] = aggrecanase-1 inhibitory action, read-out: IC50 AG1 (Experimental Example 1)
[6] = Recombinant Human MMP-13, fluorescent substrate, 25° C. for 1 h, read-out: IC50 MMP13 (Experimental Example 3)
[7] = Experimental Example 2, read-out: IC50 MMP1
[8] = Experimental Example 1, read-out: IC50 AG1
[9] = Experimental Example 3, read-out: IC50 MMP13

SMILES	IC50 [1, 4] [µM]	IC50 [2, 5] [µM]	IC50 [3, 6] [µM]	IC50 [1, 7] [µM]	IC50 [2, 8] [µM]	IC50 [3, 9] [µM]
O=C(O)C1(NS(=O)(=O)c2ccc(-c3ccc(Cl)cc3)s2)CC1(CCO)c1ccccc1 (stereo not drawn) [Example 2-263]	≥ 1	< 0.1	< 1			
C[C@]1(c2ccccc2)C[C@@]1(NS(=O)(=O)c1ccc(-c2cccc(C(F)(F)CO)c2)s1)C(=O)O [Example 2-606]				≥ 10	≥ 1	≥ 1
CC1(c2cccc(Cl)c2)CC1(NS(=O)(=O)c1ccc(-c2cc(C(F)(F)F)on2)s1)C(=O)O (stereo not drawn) [Example 2-612]				< 1	< 0.1	≥ 1
O=C(O)C1(NS(=O)(=O)c2ccc(-c3cc(C(F)(F)F)on3)o2)C2CCCc3ccccc3C21 (stereo not drawn) [Example 2-373]				≥ 10	≥ 1	≥ 1
C[C@]1(c2ccccc2)C[C@@]1(NS(=O)(=O)c1ccc(-c2ccc(F)c(F)c2)s1)C(=O)O [Example 2-581]				≥ 1	< 0.1	< 1
CCOC(=O)CSCC1(c2ccccc2)CC1(NS(=O)(=O)c1ccc(-c2cc(C(F)(F)F)on2)s1)C(=O)O (stereo not drawn) [Example 2-409]				< 1	< 1	< 0.1
CN(C)c1cc(-c2ccc(S(=O)(=O)N[C@@]3(C(=O)O)C[C@]3(C)c3ccccc3)s2)ccc1Cl [Example 2-488]				≥ 10	≥ 1	≥ 1
C[C@@H]1[C@H](c2ccccc2)[C@]1(NS(=O)(=O)N1CCN(c2ccc(C(F)(F)F)cn2)CC1)C(=O)O [Example 2-5, (1S,2R,3R)-2-methyl-3-phenyl-1-[4-(5-trifluoromethyl-pyridin-2-yl)-piperazine-1-sulfonylamino]-cyclopropanecarboxylic acid]	≥ 1	< 1	< 0.1			
Cc1nc(-c2ccc(S(=O)(=O)N[C@@]3(C(=O)O)C[C@@H]3c3ccccc3)s2)no1 [Example 2-51]	≥ 10	≥ 1	≥ 1			
O=C(OCC1(c2ccccc2)CC1(NS(=O)(=O)c1ccc(-c2cc(C(F)(F)F)on2)s1)C(=O)O)N1CCCCC1 (stereo not drawn) [Example 2-310]				< 1	< 1	< 0.1
CC1CCC(c2ccc(S(=O)(=O)N[C@@]3(C(=O)O)C[C@]3(C)c3ccccc3)cc2)CC1 (stereo partly drawn) [Example 2-436]				≥ 10	≥ 1	≥ 1
CN1CCN(C(=O)Cc2ccccc2C2CC2(NS(=O)(=O)c2ccc(-c3ccc(Cl)cc3)s2)C(=O)O)CC1 (stereo not drawn) [Example 2-195]	≥ 10	< 1	< 1			
CC(=O)NCCCC1(c2ccccc2)CC1(NS(=O)(=O)c1ccc(-c2ccc(Cl)cc2)s1)C(=O)O (stereo not drawn) [Example 2-272]				≥ 10	< 0.1	< 0.1
O=C(O)C1(NS(=O)(=O)c2ccc(-c3ccc(Cl)cc3)s2)C2Cc3ccccc3C21 (stereo not drawn) [Example 2-431]				≥ 1	< 1	< 1
CC(O)c1cnn(-c2ccc(S(=O)(=O)N[C@@]3(C(=O)O)C(C)[C@@H]3c3ccccc3)s2)c1 (stereo partly drawn) [Example 2-547]				< 0.1	< 0.1	< 0.1
O=C(O)C1(NS(=O)(=O)c2ccc(-c3ccc(Cl)cc3)s2)CC1c1ccccc1OCc1ccccn1 (stereo not drawn) [Example 2-23]	≥ 10	< 1	< 1			

SMILES	IC50 [1, 4] [µM]	IC50 [2, 5] [µM]	IC50 [3, 6] [µM]	IC50 [1, 7] [µM]	IC50 [2, 8] [µM]	IC50 [3, 9] [µM]
CCCNC(=O)c1ccc(S(=O)(=O)NC2(C(=O)O)CC2c2ccccc2)s1 (stereo not drawn) [Example 2-93]	≥ 10	≥ 10	≥ 1			
C[C@]1(c2ccccc2)C[C@@]1(NS(=O)(=O)c1ccc(-c2ccc(F)c(Cl)c2)s1)C(=O)O [Example 2-413]				≥ 1	< 0.1	< 1
O=C(NC1CCCC1)c1ccc(S(=O)(=O)NC2(C(=O)O)CC2c2ccccc2)s1 (stereo not drawn) [Example 2-95]	≥ 10	≥ 10	≥ 10			
CC1[C@H](c2ccccc2)[C@]1(NS(=O)(=O)c1ccc2nc(-c3ccccc3)cn2c1)C(=O)O (stereo partly drawn) [Example 2-622]				≥ 1	≥ 1	< 1
O=C(O)C1(NS(=O)(=O)c2cn3cc(-c4ccc(Cl)cc4)nc3s2)CC1c1ccccc1 (stereo not drawn) [Example 2-490]				≥ 10	≥ 1	< 0.1
CC1[C@H](c2ccccc2)[C@]1(NS(=O)(=O)N1CCCN(c2ccc(F)cc2)CC1)C(=O)O (stereo partly drawn) [Example 2-472]				≥ 1	< 1	≥ 10
O=C1COCCN1CC1(c2ccccc2)CC1(NS(=O)(=O)c1ccc(-c2ccc(Cl)cc2)s1)C(=O)O (stereo not drawn) [Example 2-400]				≥ 1	≥ 1	< 1
O=C(Nc1cccc(C2CC2(NS(=O)(=O)c2ccc(-c3ccc(Cl)cc3)s2)C(=O)O)c1)N1CCOCC1 (stereo not drawn) [Example 2-251]	≥ 10	< 1	< 1			
Nc1cccc(C2CC2(NS(=O)(=O)c2ccc(-c3ccc(Cl)cc3)s2)C(=O)O)c1 (stereo not drawn) [Example 1-128]	≥ 1	< 0.1	< 1			
O=C(O)C1(NS(=O)(=O)c2ccc(-c3ccc(Cl)cc3)s2)C2CCC(O)c3ccccc3C21 (stereo not drawn) [Example 2-412]				≥ 1	< 0.1	< 0.1
CC1CCN(c2ccc(S(=O)(=O)N[C@@]3(C(=O)O)C[C@@H]3c3ccccc3)s2)CC1 [Example 2-256]	≥ 10	≥ 1	≥ 10			
CC1[C@H](c2ccccc2)[C@]1(NS(=O)(=O)c1ccc(-c2ccc3c(c2)OCO3)s1)C(=O)O (stereo partly drawn) [Example 2-470]				< 1	< 0.1	< 0.1
C[C@]1(c2ccccc2)C[C@@]1(NS(=O)(=O)c1ccc(-n2cc(S(C)(=O)=O)cn2)s1)C(=O)O [Example 2-602]				< 1	< 0.1	< 1
O=C(NC[C@H]1CCCO1)OCC1(c2ccccc2)CC1(NS(=O)(=O)c1ccc(-c2cc(C(F)(F)F)on2)s1)C(=O)O (stereo partly drawn) [Example 2-309]				≥ 1	< 1	< 1
NC(=O)CCc1ccc([C@H]2C[C@@]2(NS(=O)(=O)c2ccc(-c3cc(C(F)(F)F)on3)s2)C(=O)O)cc1 [Example 2-278]				< 1	< 0.1	< 0.1
